Several values for one entry are separate records, joined by “and”; a condition that tells them apart may be missing. Equal entries are not always repeated.
Experiments:
Type in all cases: cell-based, human
hyaluronic acid = assay: Hyaluronic acid production in HaCaT cells (ELISA); details: 24 hours, untreated = 100
Method: HaCaT cells were aliquoted in a 24-well plate at 1.0×10^5 cells/mL and cultured at 37° C., 5% CO2 conditions for 18 hours. It was replaced with a serum-free DMEM medium, and the samples in Table 2 were treated and cultured for 24 hours. After that, the culture medium was removed, centrifuged at 15,000 rpm for 5 minutes, and the supernatant was removed and stored frozen (−20° C.) until quantification. As a control group, a sample treated with retinoic acid (RA) at a concentration of 10 μM was used. Enzyme-Linked Immunosorbent Assay (ELISA) was performed using a hyaluronic acid ELISA kit (Elabscience Biotechnology Co., Ltd) and the method provided by the manufacturer.

HaCaT cells = assay: Cytotoxicity assessment, EZ-Cytox assay, HaCaT cell growth rate; details: untreated = 100
Method: HaCaT cells, which are human epidermal keratinocytes, were distributed from Dr. C. G. Hyun (Jeju National University, Korea) and Dulbecco's Modified Eagle's Medium (DMEM) medium containing 100 units/ml of penicillin-streptomycin and 10% by volume of fetal bovine serum (FBS) was used and cultured at 37° C. and 5% CO2 incubator. Subculture was performed at intervals of 3 to 4 days.
The EZ-cytox assay is a representative method for measuring cell viability using the principle that water solution tetrazolium salt (WST) reacts with dehydrogenase of living cells to generate orange water-soluble formazan.
HaCaT cells were aliquoted in a 96-well plate at 1.0×10^4 cells/mL using DMEM medium supplemented with 10% by volume of FBS to check cytotoxicity and then cultured at 37° C., 5% CO2 condition for 18 hours. The cultured HaCaT cells were exchanged with serum-free DMEM to treat the extract to be evaluated. After that, EZ-cytox was added to each well and reacted for 30 minutes at 37° C. and 5% CO2, and absorbance was measured at 450 nm using a microplate reader. The average absorbance value for each sample group was obtained, and the cell viability was evaluated by comparing it with the absorbance value of the control group.

[1] = test system: thymus and activation regulated chemokine (TARC); assay: TARC production inhibitory activity in HaCaT cells (ELISA); details: IFN (30 ng/ml) + TNF (30 ng/ml) stimulated = 100
Method: In order to confirm the atopic treatment effect on the carrot stems and leaves extract according to the present disclosure, atopic thymus and activation regulated chemokine (TARC) was analyzed.
HaCaT cells were aliquoted in a 24-well plate at 1.5×10^5 cells/mL and cultured at 37° C., 5% CO2 conditions for 18 hours. […] Then, the atopic chemokine production content of the supernatant obtained by centrifugation of the culture medium (12,000 rpm, 3 min) was measured. All samples were stored frozen (−20° C.) until quantification. For TARC content, a human enzyme-linked immunosorbent assay (ELISA) kit (R&D Systems Inc., Minneapolis, Minn., USA) was used, and the r^2 value of the standard curve for the standard was 0.99 or more.

Filaggrin = assay: Skin barrier strengthening: filaggrin production in HaCaT cells (ELISA); details: 10 μM, 24 hours, untreated = 100
Method: HaCaT cells were aliquoted in a 24-well plate at 1.0×10^5 cells/mL and cultured at 37° C., 5% CO2 conditions for 18 hours. It was exchanged with serum-free DMEM, and the carrot stems and leaves extracts and roots extracts of the samples in Table 2 were treated and cultured for 24 hours. After removing the culture medium and washing with PBS for each group, PBS is containing no drug that may affect protein quantification was treated. The protein was collected after lysing the cells by repeating low-temperature and room-temperature incubation. As a control group, a sample treated with retinoic acid (RA) at a concentration of 10 μM was used. Quantification was performed using the Filaggrin-ELISA kit (Elabscience Biotechnology Co., Ltd) and was performed by the method provided by the manufacturer.

Compound	HA production (%) (hyaluronic acid; 25 μM)	HA production (%) (hyaluronic acid; 50 μM)	HA production (%) (hyaluronic acid; 100 μM)	HaCaT cell growth rate (%) (HaCaT cells; 12.5 μM)	HaCaT cell growth rate (%) (HaCaT cells; 25 μM)	HaCaT cell growth rate (%) (HaCaT cells; 50 μM)	HaCaT cell growth rate (%) (HaCaT cells; 100 μM)	TARC production (%) ([1]; 12.5 μM)	TARC production (%) ([1]; 25 μM)	TARC production (%) ([1]; 50 μM)	HA production (%) (hyaluronic acid; 10 μM)	HaCaT cell growth rate (%) (HaCaT cells; 10 μM)	FLG production (%) (Filaggrin)
CCCCC/C=C\C/C=C\CCCCCCCC(=O)OCC [Ethyl linoleate, ethyl linoleate]	92.7 ± 0.27	85.5 ± 0.27	89.5 ± 0.07	92.5 ± 3.0	92.3 ± 2.0	88.9 ± 2.3	94.1 ± 3.0	78.3 ± 0.10	53.8 ± 0.16	42 ± 0.81			
CC1=C(/C=C/C(C)=C/C=C/C(C)=C/C(=O)O)C(C)(C)CCC1 [Retinoic acid, retinoic acid, reference compound]											153.1 ± 0.14% and 100.0 ± 0.36%	103.8 ± 2.1	157.5 ± 0.13
CC/C=C\C/C=C\C/C=C\CCCCCCCC(=O)O [α-Linolenic acid, α-linolenic acid]	105.0 ± 0.06	110.5 ± 0.02	116.3 ± 0.26	97.8 ± 3.6	96.1 ± 4.4	92.1 ± 3.9	106.9 ± 1.0	72.6 ± 0.03	45.6 ± 0.51	35.7 ± 1.44			
CCCCC/C=C\C/C=C\CCCCCCCC(=O)OC[C@@H](O)CO (racemic) [Monolinolein]	102.7 ± 0.14	113.7 ± 0.14	114.4 ± 0.05	106.0 ± 2.6	102.2 ± 1.0	101.5 ± 1.7	122.6 ± 2.1	75.2 ± 0.07	37.7 ± 1.59	30.9 ± 1.97			
